Molecular target: T1, ERR gamma protein (Homo sapiens, UniProt P62508)
T1 sequence (P62508 1-458): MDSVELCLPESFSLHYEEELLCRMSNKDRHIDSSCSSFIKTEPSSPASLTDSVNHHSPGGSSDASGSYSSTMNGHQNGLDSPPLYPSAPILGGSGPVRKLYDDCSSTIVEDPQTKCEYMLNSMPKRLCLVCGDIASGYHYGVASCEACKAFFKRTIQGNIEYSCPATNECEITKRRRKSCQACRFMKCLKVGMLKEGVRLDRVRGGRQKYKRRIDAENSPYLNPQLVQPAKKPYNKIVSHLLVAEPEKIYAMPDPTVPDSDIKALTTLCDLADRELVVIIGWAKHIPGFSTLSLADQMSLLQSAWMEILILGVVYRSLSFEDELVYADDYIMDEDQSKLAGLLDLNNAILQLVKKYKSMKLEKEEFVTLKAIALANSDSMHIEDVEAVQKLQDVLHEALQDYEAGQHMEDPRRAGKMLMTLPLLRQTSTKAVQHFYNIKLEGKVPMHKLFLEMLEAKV
Assay: Protein thermal shift assay
Type: binding
Conditions: compound at 20 μM; ERR gamma protein 0.1 mg/mL, SYPRO-Orange; read-out: T.S. (thermal shift) range
Protocol: Six replicate reactions were set up and run in Applied Biosystems Quantstudio 7 Real-Time PCR system. Data were collected at a ramp rate of 0.05° C./s from 24° C. through 95° C. and analyzed using Protein Thermal Shift Software 1.3.

Compound	ΔTm at 20 µM [°C]
O=C(NCc1ccccc1)c1ccc(-c2ccc(Cl)cc2)s1 [Compound 2, N-benzyl-5-(4-chlorophenyl)thiophene-2-carboxamide]	2 to 4
Clc1ccc(-c2ccc(CNCc3ccccc3)s2)cc1 [Compound 3, N-benzyl-1-(5-(4-chlorophenyl)thiophen-2-yl)methanamine]	0 to 2
CC(C)c1ccc(-c2ccc(COc3ccccc3)s2)cc1 [Compound 4, 2-(4-isopropylphenyl)-5-(phenoxymethyl)thiophene]	0 to 2
CC(C)c1ccc(NC(=O)c2cc(-c3ccc(O)cc3)[nH]n2)cc1 [Compound 5, 3-(4-hydroxyphenyl)-N-(4-isopropylphenyl)-1H-pyrazole-5-carboxamide]	2 to 4
CC(C)c1cccc(-c2ccc(C(=O)Nc3ccc(O)cc3)s2)c1 [Compound 6, N-(4-hydroxyphenyl)-5-(3-isopropylphenyl)thiophene-2-carboxamide]	0 to 2
O=C(Nc1cccc(F)c1)c1ccc(-c2ccc(O)cc2)s1 [Compound 7, N-(3-fluorophenyl)-5-(4-hydroxyphenyl)thiophene-2-carboxamide]	> 4
O=C(Nc1ccc(O)cc1)c1coc(-c2ccsc2)n1 [Compound 10, N-(4-hydroxyphenyl)-2-(thiophen-3-yl)oxazole-4-carboxamide]	0 to 2
O=C(Nc1cccc(F)c1)c1ncc(-c2ccc(O)cc2)s1 [Compound 11, N-(3-fluorophenyl)-5-(4-hydroxyphenyl)thiazole-2-carboxamide]	> 4
O=C(Nc1ccccc1F)c1ccc(-c2ccc(C(=O)C(F)(F)F)cc2)s1 [Compound 12, N-(2-fluorophenyl)-5-(4-(2,2,2-trifluoroacetyl)phenyl)thiophene-2-carboxamide]	0 to 2
CC(C)c1ccc(-c2ccc(C(=O)Nc3ccc(O)cc3)s2)cc1 [Compound 13]	0 to 2
O=C(Nc1ccc(F)cc1)c1ccc(-c2ccc(B(O)O)cc2)s1 [Compound 17]	2 to 4
COc1ccc(NC(=O)c2ccc(-c3ccc(N)cc3)s2)cc1 [Compound 18]	0 to 2
Cc1cccc(NC(=O)c2ccc(-c3ccc(O)cc3)s2)c1 [Compound 19]	0 to 2
O=C(Nc1cccc(F)c1)c1ncc(-c2cccc(O)c2)s1 [Compound 21]	> 4
N#Cc1ccc(NC(=O)c2ccc(-c3cccc(O)c3)s2)cc1 [Compound 22]	0 to 2
COc1ccc(NC(=O)c2ccc(-c3ccc(O)cc3)s2)cc1 [Compound 29]	0 to 2
O=C(Nc1ccc2ccccc2c1)c1ccc(-c2ccc(O)cc2)s1 [Compound 31]	0 to 2
Nc1ccc(-c2ccc(C(=O)NCc3cccc(F)c3)o2)cc1 [Compound 36]	0 to 2
O=C(Nc1ccc2ncsc2c1)c1ccc(-c2ccc(O)cc2)o1 [Compound 41]	2 to 4
O=C(Nc1ccc2ncsc2c1)c1ccc(-c2cccc(O)c2)o1 [Compound 42]	0 to 2
O=C(Nc1cccc(B(O)O)c1)c1ccc(-c2ccccc2F)s1 [Compound 44]	2 to 4
O=C(O)c1ccc(-c2ccc(C(=O)Nc3ccc(F)cc3)s2)cc1 [Compound 48]	0 to 2
O=C(NC1CCCCC1)c1ccc(-c2ccc(O)cc2)s1 [Compound 49]	2 to 4
CCOc1ccc(NC(=O)c2ccc(-c3cccc(N)c3)s2)cc1 [Compound 51]	> 4
CCOc1ccc(NC(=O)c2ccc(-c3cccc(O)c3)s2)cc1 [Compound 52]	2 to 4
O=C(Nc1ccc2ccccc2c1)c1ccc(-c2cccc(O)c2)s1 [Compound 53]	> 4

Compound	ΔTm at 20 µM [°C]
Nc1cccc(-c2ccc(C(=O)Nc3ccc4ccccc4c3)s2)c1 [Compound 54]	2 to 4
O=C(Nc1cccc(B(O)O)c1)c1ccc(-c2ccsc2)s1 [Compound 57]	> 4
O=C(Nc1cccc(F)c1)c1ccc(-c2cnc(O)nc2)s1 [Compound 58]	0 to 2
O=C(Nc1ccccc1F)c1ccc(-c2cccc(B(O)O)c2)s1 [Compound 59]	0 to 2
O=C(Nc1cccc(F)c1)c1ccc(-c2ccc(O)c(C(F)(F)F)c2)s1 [Compound 61]	> 4
O=C(Nc1ccccc1F)c1ccc(-c2cccc(O)c2)s1 [Compound 63]	0 to 2
O=C(Nc1cccc(F)c1)c1ccc(-c2ccc3[nH]ccc3c2)s1 [Compound 66]	2 to 4
O=C(Nc1ccc(C(F)(F)F)cc1)c1ccc(-c2ccc(O)cc2)s1 [Compound 68]	0 to 2
O=C(Nc1ccc(C(F)(F)F)cc1)c1ccc(-c2ccncc2)s1 [Compound 69]	0 to 2
O=C(Nc1cccc(C(F)(F)F)c1)c1ccc(-c2ccncc2)s1 [Compound 70]	0 to 2
O=C(Nc1cccc(C(F)(F)F)c1)c1ccc(-c2ccc(O)cc2)s1 [Compound 71]	0 to 2
COc1ccc(NC(=O)c2ccc(-c3ccsc3)s2)cc1 [Compound 73]	0 to 2
COc1cc(NC(=O)c2ccc(-c3ccc(Cl)cc3)s2)cc(OC)c1 [Compound 75]	0 to 2
CC(C)Cc1ccc(-c2ccc(C(=O)Nc3ccc(Cl)cc3)s2)cc1 [Compound 76]	0 to 2
CC(C)Cc1ccc(-c2ccc(C(=O)Nc3cccnc3)s2)cc1 [Compound 77]	0 to 2
CC(C)Cc1ccc(-c2ccc(C(=O)Nc3ccncc3)s2)cc1 [Compound 78]	2 to 4
CC(C)Cc1ccc(-c2ccc(C(=O)Nc3ccc(O)cc3)s2)cc1 [Compound 79]	2 to 4
Cc1ccc(-c2ccc(C(=O)Nc3ccc(Cl)cc3)s2)cc1C [Compound 80]	0 to 2
Cc1ccc(-c2ccc(C(=O)Nc3cccnc3)s2)cc1C [Compound 81]	0 to 2
Cc1ccc(-c2ccc(C(=O)Nc3ccncc3)s2)cc1C [Compound 82]	0 to 2
Cc1ccc(-c2ccc(C(=O)Nc3ccc(O)cc3)s2)cc1C [Compound 83]	0 to 2
O=C(Nc1ccc(Cl)cc1)c1ccc(-c2ccccc2F)s1 [Compound 84]	2 to 4
O=C(Nc1cccnc1)c1ccc(-c2ccccc2F)s1 [Compound 85]	0 to 2
O=C(Nc1ccncc1)c1ccc(-c2ccccc2F)s1 [Compound 86]	0 to 2
O=C(Nc1cccnc1)c1ccc(-c2cccc(F)c2)s1 [Compound 89]	0 to 2
O=C(Nc1ccncc1)c1ccc(-c2cccc(F)c2)s1 [Compound 90]	2 to 4

Compound	ΔTm at 20 µM [°C]
O=C(Nc1ccc(Cl)cc1)c1ccc(-c2ccc(F)cc2)s1 [Compound 92]	0 to 2
O=C(Nc1cccnc1)c1ccc(-c2ccc(F)cc2)s1 [Compound 93]	0 to 2
O=C(Nc1ccncc1)c1ccc(-c2ccc(F)cc2)s1 [Compound 94]	0 to 2
N#Cc1cccc(-c2ccc(C(=O)Nc3ccc(Cl)cc3)s2)c1 [Compound 96]	0 to 2
N#Cc1cccc(-c2ccc(C(=O)Nc3cccnc3)s2)c1 [Compound 97]	0 to 2
N#Cc1cccc(-c2ccc(C(=O)Nc3ccc(O)cc3)s2)c1 [Compound 98]	2 to 4
N#Cc1ccc(-c2ccc(C(=O)Nc3ccc(Cl)cc3)s2)cc1 [Compound 99]	0 to 2
N#Cc1ccc(-c2ccc(C(=O)Nc3cccnc3)s2)cc1 [Compound 100]	0 to 2
N#Cc1ccc(-c2ccc(C(=O)Nc3ccncc3)s2)cc1 [Compound 101]	0 to 2
N#Cc1ccc(-c2ccc(C(=O)Nc3ccc(O)cc3)s2)cc1 [Compound 102]	2 to 4
O=C(Nc1cccnc1)c1ccc(-c2ccsc2)s1 [Compound 103]	0 to 2
O=C(Nc1cccnc1)c1ccc(-c2ccc3ccccc3c2)s1 [Compound 106]	2 to 4
O=C(Nc1ccc(Cl)cc1)c1ccc(-c2cccc(C(F)(F)F)c2)s1 [Compound 107]	0 to 2
O=C(Nc1cccnc1)c1ccc(-c2cccc(C(F)(F)F)c2)s1 [Compound 108]	0 to 2
O=C(Nc1ccncc1)c1ccc(-c2cccc(C(F)(F)F)c2)s1 [Compound 109]	2 to 4
O=C(Nc1ccc(O)cc1)c1ccc(-c2cccc(C(F)(F)F)c2)s1 [Compound 110]	2 to 4
O=C(Nc1ccc(Cl)cc1)c1ccc(-c2ccc(C(F)(F)F)cc2)s1 [Compound 111]	0 to 2
O=C(Nc1cccnc1)c1ccc(-c2ccc(C(F)(F)F)cc2)s1 [Compound 112]	0 to 2
O=C(Nc1ccncc1)c1ccc(-c2ccc(C(F)(F)F)cc2)s1 [Compound 113]	0 to 2
CC(C)Oc1ccc(-c2ccc(C(=O)Nc3cccnc3)s2)cc1 [Compound 115]	0 to 2
CC(C)Oc1ccc(-c2ccc(C(=O)Nc3ccncc3)s2)cc1 [Compound 116]	0 to 2
CC(C)c1cccc(-c2ccc(C(=O)Nc3ccc(Cl)cc3)s2)c1 [Compound 117]	0 to 2
CC(C)c1cccc(-c2ccc(C(=O)Nc3cccnc3)s2)c1 [Compound 118]	0 to 2
CC(C)c1cccc(-c2ccc(C(=O)Nc3ccncc3)s2)c1 [Compound 119]	0 to 2
O=C(Nc1ccncc1)c1ccc(-c2ccc3ccccc3c2)s1 [Compound 120]	2 to 4
O=C(Nc1ccc(O)cc1)c1ccc(-c2ccc3ccccc3c2)s1 [Compound 121]	0 to 2
